Series [1] deals with T1, steroid sulfatase in HaCaT keratinocytes (Homo sapiens, UniProt P08842).
T1 construct: HaCaT keratinocytes are cultivated in Dulbecco's modification of Eagle's medium (DMEM); endogenous in cells; host or cells: HaCaT keratinocytes
T1 sequence (P08842 22-583): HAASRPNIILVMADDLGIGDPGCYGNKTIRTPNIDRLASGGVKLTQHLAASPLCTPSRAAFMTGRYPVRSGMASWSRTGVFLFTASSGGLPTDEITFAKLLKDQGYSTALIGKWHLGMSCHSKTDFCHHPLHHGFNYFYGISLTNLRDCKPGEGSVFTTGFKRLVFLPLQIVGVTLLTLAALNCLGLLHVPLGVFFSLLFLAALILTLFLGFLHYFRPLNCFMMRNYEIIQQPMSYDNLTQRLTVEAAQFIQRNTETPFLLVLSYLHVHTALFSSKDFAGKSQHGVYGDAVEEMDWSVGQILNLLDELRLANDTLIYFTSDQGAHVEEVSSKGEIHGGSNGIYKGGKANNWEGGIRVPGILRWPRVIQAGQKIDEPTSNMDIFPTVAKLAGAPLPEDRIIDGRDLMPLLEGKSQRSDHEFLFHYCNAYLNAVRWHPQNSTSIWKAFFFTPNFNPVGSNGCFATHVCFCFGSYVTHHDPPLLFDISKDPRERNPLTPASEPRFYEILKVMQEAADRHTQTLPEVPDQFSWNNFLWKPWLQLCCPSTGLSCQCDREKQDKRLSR
The series is described as follows: Steroid sulfatase inhibition in HaCaT cells incubated with DHEAS. To be noted: intact HaCaT keratinocytes, 0.3 μM DHEAS, 96 hours. Format: cell-based.
Description: Steroid Sulfatase Inhibition in HaCaT Cells Incubated with DHEAS
HaCaT keratinocytes are cultivated in Dulbecco's modification of Eagle's medium (DMEM) supplemented with 10% v/v fetal calf serum (FCS). They are grown to confluency and then harvested by trypsinization. Approximately 2×10^6 cells are dispensed into 9.6 cm^2 dishes and incubated in medium containing FCS until confluency is reached. Then the medium is changed to serum-free DMEM (1.5 ml per well); 0.3 μM DHEAS is included as substrate with 1.5 μCi/well [^3H]-DHEAS (21 Ci/mmol) as tracer. Incubation is continued for 96 hours. […] In parallel, DHEAS is also incubated with medium without cells as a control for non-enzymatic hydrolysis. After incubation, the supernatant is removed and 1 ml is extracted with 4 ml of toluene. 3 ml of the organic layer are collected and the solvent evaporated in vacuo. The residue is taken up in acetonitrile. 10 μg DHEA is included as carrier. The extract is analysed by high performance liquid chromatography (HPLC) using a RP C-8 column and isocratic elution with 10 mM ammonium sulfate pH 6/acetonitrile (60/40), at a flow rate of 1 ml/min. The amount of DHEA cleaved during incubation is calculated from the area of the corresponding radioactive peak determined by continuous monitoring with a radiodetector equipped with a flow-cell.

The target of series [2] is T2, steroid sulfatase (Homo sapiens, UniProt P08842).
T2 sequence (P08842 22-583): T1 sequence (P08842 22-583)
Nature of the series: Steroid sulfatase inhibition in vitro (purified enzyme, 4-methylumbelliferyl sulfate cleavage, fluorescence). The following applies: purified human placental steroid sulfatase, 0.5 mM 4-methylumbelliferyl sulfate, 37°, 1 hour; reference determined in parallel.
Description: Steroid Sulfatase Inhibition in vitro
a) Purification of Human Steroid Sulfatase
Human placenta is obtained fresh after delivery and stripped of membranes and connective tissues. For storage the material is frozen at −70°. After thawing, all further steps are carried out at 4°, while pH values are adjusted at 20°. 400 g of tissue are homogenized in 1.2 l of buffer A (50 mM Tris-HCl, pH 7.4; 0.25M sucrose). The homogenate is centrifuged at 10,000 g for 45 minutes. The supernatant is set aside and the pellet re-homogenized in 500 ml of buffer A. After centrifugation the two supernatants are combined and subjected to ultracentrifugation (100,000 g, 1 hour). The pellet is resuspended in buffer A and the centrifugation repeated. The pellet is suspended in 50 ml of 50 mM Tris-HCl, pH 7.4 and stored at −20° until further work-up.
After thawing, microsomes are collected by ultracentrifugation as described above and suspended in 50 ml of buffer B (10 mM Tris-HCl, pH 7.0; 1 mM EDTA; 2 mM 2-mercaptoethanol; 1% Triton X-100 v/v; 0.1% aprotinin v/v). After 1 hour on ice with gentle agitation the suspension is centrifuged (100,000 g, 1 hour). […]
Purified human steroid sulfatase also readily cleaves aryl sulfates such as 4-methylumbelliferyl sulfate. […]
Plates are incubated at 37° for 1 hour. […] Fluorescence intensity is measured (Titertek Fluoroskan II) with λex=355 nm and λem=460 nm. […]

The target of series [3] is T2, steroid sulfatase. The series is described as follows: Steroid sulfatase inhibition in cell extracts (HaCaT keratinocytes or 1BR3GN fibroblasts, [3H]-DHEAS cleavage). Type of series: biochemical. The following applies: solubilized enzyme from HaCaT or 1BR3GN cells, 50 μM DHEAS, 30 minutes at 37°; depending on the enzyme concentration used. Also noted: the supernatant which contains the solubilized enzyme is removed and stored at 4°; endogenous in cells; host or cells: HaCaT keratinocytes or 1BR3GN fibroblasts (microsomal extract).
Description: Steroid Sulfatase Inhibition in Cell Extracts
Human keratinocytes (HaCaT) or human skin-derived fibroblasts (1BR3GN) are grown to confluency using standard cell culture techniques. Cells are harvested by trypsinization, washed once with phosphate-buffered saline (PBS) and suspended in 20 mM Tris-HCl, pH 8.0. The suspension is sonicated and then centrifuged at 12000 g for 30 minutes. The supernatant is subjected to ultracentrifugation at 100000 g for 60 minutes. The resulting microsomal pellet is resuspended in buffer containing 0.1% Triton X-100 v/v and left standing for 30 minutes. After additional centrifugation at 100000 g for 30 minutes the supernatant which contains the solubilized enzyme is removed and stored at 4°.
For assay of the enzymatic activity 10 μl of enzyme solution are added to 100 μl of 50 μM dehydroepiandrosterone sulfate (DHEAS) containing approximately 60000 dpm [^3H]-DHEAS (21 Ci/mmol) in 0.1 M Tris-HCl, pH 7.5; 0.1% v/v Triton X-100. Test compound is included at various concentrations added from stock solutions in DMSO. After incubation for 30 minutes at 37°, 250 μl of 1N NaOH are added. The mixture is extracted with 1 ml of toluene. 800 μl of the organic layer are subjected to liquid scintillation counting to determine the fraction of substrate that has been cleaved to dehydroepiandrosterone (DHEA).

By melting point is commonly meant the temperature of the solid-liquid transition. What is called IC50 is the point on the concentration scale where inhibition reaches its midpoint. Lower therefore signals greater potency.

SMILES strings stand for the structures.

Take `CN(C)S(=O)(=O)Oc1ccc2oc(C(C)(C)C)cc(=O)c2c1` [Example 9, N,N-Dimethylsulfamic acid 2-t-butyl-4H-chromen-4-on-6-yl ester]: the melting point fell in the range of 83 to 85 °C.

Turning to `C[C@]12CC[C@@H]3c4ccc(OS(N)(=O)=O)cc4CC[C@H]3[C@@H]1CCC2=O` [Estrone-3-O-sulfamate], the concentration for half-maximal inhibition (IC50) in series [1] was approximately 0.1 nM; at steroid sulfatase [2] it was approximately 60 nM; against steroid sulfatase [3] it was 1 to 5 nM.

The record behind these values is patent US6346626B1, “Chromanone and thiochromanone compounds” (Novartis AG, priority 1998, dated 2002).
